assay: log P (pH2.3); format: physicochemical; settings: method [a]: HPLC, acidic range, pH 2.3, 0.1% aqueous phosphoric acid and acetonitrile

| SMILES | log p |
| --- | --- |
| Cc1cc(C)n(CC(=O)N2CCC(c3nc(CCc4ccccc4)cs3)CC2)n1 [Example I-54] | 2.86^[a] |

same assay, conditions: method [b]: LC-MS, acidic range, pH 2.7, 0.1% aqueous formic acid and acetonitrile

| SMILES | log p |
| --- | --- |
| Cc1cc(C(F)(F)F)nn1CC(=O)N1CCC(c2nc(/C=C\c3ccccc3)cs2)CC1 [Example I-1] | 3.91^[b] |
| O=C(Cn1ccc(C(F)(F)F)n1)N1CCC(c2nc(/C=C\c3ccccc3)cs2)CC1 [Example I-7] | 3.72^[b] |
| Cc1c(Cl)c(C(F)(F)F)nn1CC(=O)N1CCC(c2nc(/C=C\c3ccccc3)cs2)CC1 [Example I-8] | 4.56^[b] |
| Cc1cc(C(F)(F)F)nn1CC(=O)N1CCC(c2nc(/C=C\c3ccc(Cl)cc3)cs2)CC1 [Example I-9] | 4.41^[b] |
| O=C(Cn1ccc(C(F)(F)F)n1)N1CCC(c2nc(/C=C\c3ccc(Cl)cc3)cs2)CC1 [Example I-10] | 4.2^[b ] |
| Cc1c(Cl)c(C(F)(F)F)nn1CC(=O)N1CCC(c2nc(/C=C\c3ccc(Cl)cc3)cs2)CC1 [Example I-11] | 4.92^[b] |
| COc1ccc(/C=C\c2csc(C3CCN(C(=O)Cn4nc(C(F)(F)F)cc4C)CC3)n2)cc1 [Example I-12] | 3.9^[b] |
| COc1ccc(/C=C\c2csc(C3CCN(C(=O)Cn4nc(C(F)(F)F)c(Cl)c4C)CC3)n2)cc1 [Example I-14] | 4.46^[b] |
| Cc1cc(C(F)(F)F)nn1CC(=O)N1CCC(c2nc(/C=C\c3cccc(C(F)(F)F)c3)cs2)CC1 [Example I-15] | 4.51^[b] |
| O=C(Cn1ccc(C(F)(F)F)n1)N1CCC(c2nc(/C=C\c3cccc(C(F)(F)F)c3)cs2)CC1 [Example I-16] | 4.3^[b] |
| Cc1c(Cl)c(C(F)(F)F)nn1CC(=O)N1CCC(c2nc(/C=C\c3cccc(C(F)(F)F)c3)cs2)CC1 [Example I-17] | 5.03^[b] |
| O=C(Cn1ccc(C(F)(F)F)n1)N1CCC(c2nc(/C=C\c3cccc4ccccc34)cs2)CC1 [Example I-18] | 4.35^[b] |
| Cc1c(Cl)c(C(F)(F)F)nn1CC(=O)N1CCC(c2nc(/C=C\c3cccc4ccccc34)cs2)CC1 [Example I-19] | 5.14^[b] |
| O=C(Cn1ccc(C(F)(F)F)n1)N1CCC(c2nc(/C=C\c3ccc4ccccc4c3)cs2)CC1 [Example I-21] | 4.35^[b] |
| Cc1c(Cl)c(C(F)(F)F)nn1CC(=O)N1CCC(c2nc(/C=C\c3ccc4ccccc4c3)cs2)CC1 [Example I-22] | 5.08^[b] |
| Cc1cc(C(F)(F)F)nn1CC(=O)N1CCC(c2nc(/C=C\Cc3ccccc3)cs2)CC1 [Example I-23] | 4.41^[b] |
| Cc1cc(C(F)(F)F)nn1CC(=O)N1CCC(c2nc(/C=C/c3ccccc3)cs2)CC1 [Example I-26] | 3.99^[b] |
| Cc1cc(C(F)F)n(CC(=O)N2CCC(c3nc(CCc4ccccc4)cs3)CC2)n1 [Example I-35] | 3.37^[b] |

| SMILES | log p |
| --- | --- |
| O=C(Cn1nc(C(F)(F)F)cc1C(F)(F)F)N1CCC(c2nc(CCc3cccc4ccccc34)cs2)CC1 [Example I-43] | 4.89^[b] |
| O=C(Cn1ccc(C(F)(F)F)n1)N1CCC(c2nc(CCc3ccccc3)cs2)CC1 [Example I-55] | 3.57^[b] |
| O=C(Cc1cccc(C(F)(F)F)c1)N1CCC(c2nc(CCc3ccccc3)cs2)CC1 [Example I-56] | 4.26^[b] |
| O=C(Cc1cccc(Cl)c1)N1CCC(c2nc(CCc3ccccc3)cs2)CC1 [Example I-57] | 4.1^[b] |
| O=C(Cn1nc(C(F)(F)F)cc1C(F)(F)F)N1CCC(c2nc(CCc3ccccc3)cs2)CC1 [Example I-59] | 4.45^[b] |
| Cc1c(Cl)c(C(F)(F)F)nn1CC(=O)N1CCC(c2nc(CCc3ccccc3)cs2)CC1 [Example I-60] | 4.34^[b] |
| O=C(c1cccc(C(F)(F)F)c1)N1CCC(c2nc(CCc3ccccc3)cs2)CC1 [Example I-62] | 4.23^[b] |
| CC(C(=O)N1CCC(c2nc(CCc3ccccc3)cs2)CC1)n1ccc(C(F)(F)F)n1 (stereo not drawn) [Example I-68] | 3.93^[b] |
| O=C(Cn1cccn1)N1CCC(c2nc(CCc3ccccc3)cs2)CC1 [Example I-69] | 2.56^[b] |
| Cc1nc(C2CCN(C(=O)Cn3nc(C(F)(F)F)cc3C)CC2)sc1CC(C)C [Example I-73] | 3.75^[b] |
| Cc1cc(C)n(CC(=O)N2CCC(c3nc(/C=C\c4cccc5ccccc45)cs3)CC2)n1 [Example I-76] | 3.73^[b] |
| Cc1cc(C)n(CC(=O)N2CCC(c3nc(/C=C/c4cccc5ccccc45)cs3)CC2)n1 [Example I-77] | 3.58^[b] |
| Cc1cc(C)n(CC(=O)N2CCC(c3nc(CCCC(C)c4ccccc4)cs3)CC2)n1 (stereo not drawn) [Example I-83] | 3.83^[b] |
| Cc1cc(C)n(CC(=O)N2CCC(c3nc(/C=C/c4ccccc4)cs3)CC2)n1 [Example I-84] | 3.04^[b] |
| Cc1cc(C(F)(F)F)nn1CC(=O)N1CCC(c2nc(/C=C/c3cccc(C(F)(F)F)c3)cs2)CC1 [Example I-94] | 4.46^[b] |
| Cc1cc(C)n(CC(=O)N2CCC(c3nc(/C=C/c4cccc(C(F)(F)F)c4)cs3)CC2)n1 [Example I-96] | 3.56^[b] |
| O=C(Cc1c(F)ccc(F)c1F)N1CCC(c2nc(C#Cc3cccc4ccccc34)cs2)CC1 [Example I-97] | 4.71^[b] |
| Cc1cc(C(F)(F)F)nn1CC(=O)N1CCC(c2nc(C#Cc3ccccc3)cs2)CC1 [Example I-99] | 3.82^[b] |

same assay, conditions: method [b]: LC-MS, acidic range, pH 2.7, 0.1% aqueous formic acid and acetonitrile; HPLC on reversed-phase C 18

| SMILES | log p |
| --- | --- |
| Cc1ccccc1C=Cc1csc(C2CCN(C(=O)Cn3nc(C(F)(F)F)cc3C)CC2)n1 (mixture of isomers) [Example I-166] | 4.23^[b] |
| Cc1ccccc1C=Cc1csc(C2CCN(C(=O)Cn3nc(C(F)(F)F)cc3C(F)(F)F)CC2)n1 (mixture of isomers) [Example I-174] | 4.93^[b] |
| O=C(Cn1nc(C(F)(F)F)cc1C(F)(F)F)N1CCC(c2nc(C=Cc3ccccc3Br)cs2)CC1 (mixture of isomers) [Example I-175] | 4.99^[b] |
| O=C(Cn1nc(C(F)(F)F)cc1C(F)(F)F)N1CCC(c2nc(C=Cc3c(F)cccc3F)cs2)CC1 (mixture of isomers) [Example I-176] | 4.88^[b] |
| Cc1cc(C(F)(F)F)nn1CC(=O)N1CCC(c2nc(C=Cc3c(F)cccc3Cl)cs2)CC1 (mixture of isomers) [Example I-242] | 4.48^[b] |

same assay, conditions: method [c]: LC-MS, neutral range, pH 7.8, 0.001 molar aqueous ammonium bicarbonate and acetonitrile

| SMILES | log p |
| --- | --- |
| Cc1cc(C)n(CC(=O)N2CCC(c3nc(C#Cc4cccc5ccccc45)cs3)CC2)n1 [Example I-74] | 3.85^[c] |
| Cc1cc(C)n(CC(=O)N2CCC(c3nc(CCc4cccc5ccccc45)cs3)CC2)n1 [Example I-79] | 3.39^[c] |
| Cc1cc(C)n(CC(=O)N2CCC(c3nc(/C=C/CC(C)c4ccccc4)cs3)CC2)n1 (stereo not drawn) [Example I-85] | 3.83^[c] |

same assay, conditions: reversed-phase HPLC column (C18); method [b]: LC-MS, acidic range, pH 2.7, 0.1% aqueous formic acid and acetonitrile

| SMILES | chromatographic logP |
| --- | --- |
| Cc1cc(C(F)(F)F)nn1CC(=O)N1CCC(c2nc(/C=C\c3ccc4ccccc4c3)cs2)CC1 [Example I-20, 2-[5-Methyl-3-(trifluoromethyl)-1H-pyrazol-1-yl]-1-(4-{4-[(Z)-2-(2-naphthyl)vinyl]-1,3-thiazol-2-yl}piperidin-1-yl)ethanone] | 4.61 |
| CCCCC(=O)N1CCC(c2nc(CCc3ccccc3)cs2)CC1 [Example I-58, 1-{4-[4-(2-Phenylethyl)-1,3-thiazol-2-yl]piperidin-1-yl}pentan-1-one] | 3.73 |
| O=C(c1cc(C(F)(F)F)ccc1C(F)(F)F)N1CCC(c2nc(CCc3ccccc3)cs2)CC1 [Example I-61, [2,5-Bis(trifluoromethyl)phenyl]{4-[4-(2-phenylethyl)-1,3-thiazol-2-yl]piperidin-1-yl}methanone] | 4.67 |
| O=C(Cc1ccsc1)N1CCC(c2nc(CCc3ccccc3)cs2)CC1 [Example I-63, 1-{4-[4-(2-Phenylethyl)-1,3-thiazol-2-yl]piperidin-1-yl}-2-(thiophen-3-yl)ethanone] | 3.47 |
| Cc1c(Cl)c(C(F)(F)F)nn1C(C)C(=O)N1CCC(c2nc(CCc3ccccc3)cs2)CC1 (stereo not drawn) [Example I-64, 2-[4-Chloro-5-methyl-3-(trifluoromethyl)-1H-pyrazol-1-yl]-1-{4-[4-(2-phenylethyl)-1,3-thiazol-2-yl]piperidin-1-yl}propan-1-one] | 4.62 |
| Cn1ncc(CC(=O)N2CCC(c3nc(CCc4ccccc4)cs3)CC2)c1Cl [Example I-65, 2-(5-Chloro-1-methyl-1H-pyrazol-4-yl)-1-{4-[4-(2-phenylethyl)-1,3-thiazol-2-yl]piperidin-1-yl}ethanone] | 2.98 |
| COc1ccc(CCC(=O)N2CCC(c3nc(CCc4ccccc4)cs3)CC2)cc1OC [Example I-66, 3-(3,4-Dimethoxyphenyl)-1-{4-[4-(2-phenylethyl)-1,3-thiazol-2-yl]piperidin-1-yl}propan-1-one] | 3.43 |
| O=C(Cc1cc(C(F)(F)F)ccc1Cl)N1CCC(c2nc(CCc3ccccc3)cs2)CC1 [Example I-67, 2-[2-Chloro-5-(trifluoromethyl)phenyl]-1-{4-[4-(2-phenylethyl)-1,3-thiazol-2-yl]piperidin-1-yl}ethanone] | 4.73 |
| O=C(Cn1cc2ccccc2n1)N1CCC(c2nc(CCc3ccccc3)cs2)CC1 [Example I-70, 2-(2H-Indazol-2-yl)-1-{4-[4-(2-phenylethyl)-1,3-thiazol-2-yl]piperidin-1-yl}ethanone] | 3.14 |
| O=C(Cc1nc2ccccc2s1)N1CCC(c2nc(CCc3ccccc3)cs2)CC1 [Example I-71, 2-(1,3-Benzothiazol-2-yl)-1-{4-[4-(2-phenylethyl)-1,3-thiazol-2-yl]piperidin-1-yl}ethanone] | 3.68 |
| Cc1cc(C(F)(F)F)nn1CC(=O)N1CCC(c2nc(CCc3ccccc3)c(Br)s2)CC1 [Example I-78, 1-{4-[5-Bromo-4-(2-phenylethyl)-1,3-thiazol-2-yl]piperidin-1-yl}-2-[5-methyl-3-(trifluoromethyl)-1H-pyrazol-1-yl]ethanone] | 4.71 |
| C#Cc1csc(C2CCN(C(=O)Cn3nc(C(F)(F)F)cc3C)CC2)n1 [Example I-86, 1-[4-(4-Ethynyl-1,3-thiazol-2-yl)piperidin-1-yl]-2-[5-methyl-3-(trifluoromethyl)-1H-pyrazol-1-yl]ethanone] | 2.57 |
